In paper PMC3894558, “Chemical signatures and new drug targets for gametocytocidal drug development” (Scientific Reports, 2014):
Like-named read-outs stand apart in the source and are kept apart here.

Tests used:
Assay type in all cases: cell-based, Plasmodium falciparum; call rule not given here
[1] = test system: P. falciparum 3D7 gametocytes; assay: alamarBlue gametocyte viability assay, strain 3D7; settings: for IC50: 11 concentrations, 1:3 dilution; for Max Resp: DMSO set at 0%, 100 nM epoxomicin set at -100%
[2] = test system: P. falciparum HB3 gametocytes; assay: alamarBlue gametocyte viability assay, strain HB3
Protocol: (§1) Briefly, gametocyte cultures were set up at 0.1% parasitemia and on days 9–10 treated with 50 mM N-acetylglucosamine (NAG) to block further asexual growth. Stage III–V gametocytes were isolated by Percoll density gradient centrifugation on day 12 and returned to culture for 24 hrs before being used in the assay[9].
(§2) Briefly, 2.5 μl/well incomplete medium was dispensed into each well of 1,536-well plates using the Multidrop Combi followed by 23 nl compound transferring using the NX-TR Pintool (WAKO Scientific Solutions, San Diego, CA). Then, 2.5 μl/well of gametocytes was dispensed with a seeding density of 20,000 cells/well using the Multidrop Combi. The assay plates were incubated for 72 hrs at 37°C with 5% CO2.

[3] = test system: P. falciparum Dd2 gametocytes; assay: alamarBlue gametocyte viability assay, strain Dd2
Protocol: as §1, §2

[4] = Plasmodium falciparum, 3D7, strain profiling, three times, read-out: 3D7-gametocytes IC50
[5] = strain profiling, three times, read-out: 3D7-gametocytes IC50
[6] = strain profiling, 11 concentrations, 1:3 dilution, three times, read-out: HB3-gametocytes IC50
[7] = strain profiling, 11 concentrations, 1:3 dilution, three times, read-out: Dd2-gametocytes IC50
[8] = Malaria Box, stages III-V 3D7 gametocytes
[9] = Malaria Box, stages III-V 3D7 gametocytes, read-out: IC50

Row | Molecule | Max Resp ([1]; Malaria Box) | Curve Class [1, 8] | IC50 [1, 8] | IC50 [1, 9] | also measured
1 | CNc1ccc2oc(C[C@H]3O[C@@]4(CC[C@H]3C)O[C@H]([C@H](C)C(=O)c3ccc[nH]3)[C@H](C)C[C@H]4C)nc2c1C(=O)O [Calcimycin] | – | – | – | – | IC50 [1, 4]: 2640 nM; IC50 ([2]; Plasmodium falciparum, HB3, read-out: HB3-gametocytes IC50): 5900 nM; IC50 ([3]; Plasmodium falciparum, DD2, read-out: Dd2-gametocytes IC50): 1660 nM
2 | CCN(CC)C(=S)SSC(=S)N(CC)CC [Tetraethylthiuram disulfide] | – | – | – | – | IC50 [1, 5]: 96 nM; IC50 [2, 6]: 148 nM; IC50 [3, 7]: 296 nM
3 | COc1ccc2nc3cc(Cl)ccc3c(Nc3cc(CN4CCCC4)c(O)c(CN4CCCC4)c3)c2n1 [Pyronaridine] | – | – | – | – | IC50 [1, 4]: 1870 nM; IC50 ([2]; Plasmodium falciparum, HB3, strain profiling, 11 concentrations, 1:3 dilution, three times, read-out: HB3-gametocytes IC50): 2640 nM; IC50 ([3]; Plasmodium falciparum, DD2, strain profiling, 11 concentrations, 1:3 dilution, three times, read-out: Dd2-gametocytes IC50): 6620 nM
4 | Salinomycin monosodium | – | – | – | – | IC50 [1, 5]: 194 nM; IC50 [2, 6]: 469 nM; IC50 [3, 7]: 296 nM
5 | Cc1cc(NC2CCCCC2)nc(-n2nc(C)cc2C)n1 [CyPPA] | – | – | – | – | IC50 [1, 5]: 469 nM; IC50 [2, 6]: 743 nM; IC50 [3, 7]: 590 nM
6 | Br.Cc1ccc(C)c(-c2csc(Nc3ccc(C)c(C)c3)n2)c1 [MMV007654] | -3% | 4 | Inactive | – | –
7 | COc1ccc(-c2cc(=O)oc3c4c(ccc23)OCN(Cc2ccc(F)cc2)C4)cc1 [MMV000604] | -55% | -2.2 | – | 7430 nM | –
8 | Cc1cc(Nc2ccc(Cl)cc2)n2nc(C(F)(F)F)nc2n1 [MMV011256] | -9% | 4 | Inactive | – | –
9 | Br.CCN(CC)S(=O)(=O)c1ccc(-c2csc(Nc3ccc(C)c(C)c3)n2)cc1 [MMV009108] | -14% | 4 | Inactive | – | –
10 | CCOc1ccc(/C=C/c2nc(=O)c3ccccc3o2)cc1 [MMV665940] | 46% | 2.2 | – | 18700 nM | –
11 | CCCCCCOC(=O)C1=C(C)NC(=O)NC1c1ccccc1F (stereo not drawn) [MMV007686] | -2% | 4 | Inactive | – | –
12 | COc1cc(CNCCc2ccc(Cl)cc2)cc(OC)c1O [MMV128432] | -81% | -2.1 | – | 11800 nM | –
13 | Cc1ccnc(NC(c2cccc(OCc3ccccc3)c2)c2ccc3cccnc3c2O)c1 (stereo not drawn) [MMV000720] | -112% | -2.1 | – | 13200 nM | –
14 | Cc1sc2ncnc(Sc3nc4ccccc4[nH]3)c2c1C [MMV019266] | -72% | -2.2 | – | 11800 nM | –
15 | OC(CNC1CCCCC1)Cn1c2ccc(I)cc2c2cc(I)ccc21 (stereo not drawn) [MMV665882] | -97% | -2.1 | – | 2960 nM | –
16 | CCOC(=O)c1cnc2c(C)cccc2c1Nc1ccc(C(C)=O)cc1 [MMV006250] | 3% | 4 | Inactive | – | –
17 | O=C(Nc1cccc(C(F)(F)F)c1)c1cc(Cl)ccc1O [MMV665807] | -84% | -2.1 | – | 20900 nM | –
18 | O=C(Nc1ccc(N2CCN(Cc3ccccc3)CC2)cc1)c1cccs1.O=C(O)C(F)(F)F [MMV019670] | 13% | 4 | Inactive | – | –
19 | O=C1c2ccccc2C2=Nc3ccccc3SC(c3cccc(F)c3)C12 (stereo not drawn) [MMV006389] | 8% | 4 | Inactive | – | –
20 | CCN(CC)CCNc1ncnc2c1[nH]c1ccc(Br)cc12 [MMV305841] | -95% | -1.1 | – | 5260 nM | –
21 | COc1ccccc1CNC(=O)CCn1c(=O)[nH]c2ccccc2c1=O [MMV665916] | -1% | 4 | Inactive | – | –
